Activity calls are given as the source filed them.
Legend:
Cytochrome P450 1A2 = target: T1, Cytochrome P450 1A2 (Homo sapiens, UniProt P05177);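 further: PubChem cytochrome P450 panel assay, CYP1A2 panel member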
T1 sequence (P05177 whole entry): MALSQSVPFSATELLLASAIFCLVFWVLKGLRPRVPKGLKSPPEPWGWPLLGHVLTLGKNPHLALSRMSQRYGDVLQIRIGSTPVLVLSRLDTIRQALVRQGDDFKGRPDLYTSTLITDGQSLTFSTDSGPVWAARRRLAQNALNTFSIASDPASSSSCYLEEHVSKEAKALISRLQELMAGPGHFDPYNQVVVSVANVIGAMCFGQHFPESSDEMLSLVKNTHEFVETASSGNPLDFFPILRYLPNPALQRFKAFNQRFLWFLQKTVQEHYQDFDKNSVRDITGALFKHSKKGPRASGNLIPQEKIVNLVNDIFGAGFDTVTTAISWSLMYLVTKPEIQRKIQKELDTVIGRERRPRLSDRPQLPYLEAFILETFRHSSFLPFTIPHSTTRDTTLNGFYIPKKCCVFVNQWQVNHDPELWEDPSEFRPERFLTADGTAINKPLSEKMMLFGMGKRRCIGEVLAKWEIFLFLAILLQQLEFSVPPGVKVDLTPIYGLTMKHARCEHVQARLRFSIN

Cytochrome P450 2C9 = Cytochrome P450 2C9 (Homo sapiens, UniProt P11712)
[1] = target: T2, Corticotropin-releasing factor receptor 2/Corticotropin-releasing factor-binding protein (Homo sapiens, UniProt P24387+Q13324); test: Dose Response confirmation of uHTS hits for small molecule antagonists of the CRF-binding protein and CRF-R2 receptor complex.; type: functional; conditions: read-out: IC50_Mean
T2 sequence (Q13324 whole entry): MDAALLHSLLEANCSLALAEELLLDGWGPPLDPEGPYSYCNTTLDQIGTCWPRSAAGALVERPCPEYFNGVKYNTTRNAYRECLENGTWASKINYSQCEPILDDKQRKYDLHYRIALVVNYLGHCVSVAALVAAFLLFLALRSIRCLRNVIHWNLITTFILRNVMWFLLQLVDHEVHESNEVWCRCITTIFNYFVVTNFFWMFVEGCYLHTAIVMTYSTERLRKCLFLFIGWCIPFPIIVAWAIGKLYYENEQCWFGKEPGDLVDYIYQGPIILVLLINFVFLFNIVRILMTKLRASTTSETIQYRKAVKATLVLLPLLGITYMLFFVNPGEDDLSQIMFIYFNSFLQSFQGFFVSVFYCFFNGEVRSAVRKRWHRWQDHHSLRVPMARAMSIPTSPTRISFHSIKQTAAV
T2 sequence (P24387 whole entry): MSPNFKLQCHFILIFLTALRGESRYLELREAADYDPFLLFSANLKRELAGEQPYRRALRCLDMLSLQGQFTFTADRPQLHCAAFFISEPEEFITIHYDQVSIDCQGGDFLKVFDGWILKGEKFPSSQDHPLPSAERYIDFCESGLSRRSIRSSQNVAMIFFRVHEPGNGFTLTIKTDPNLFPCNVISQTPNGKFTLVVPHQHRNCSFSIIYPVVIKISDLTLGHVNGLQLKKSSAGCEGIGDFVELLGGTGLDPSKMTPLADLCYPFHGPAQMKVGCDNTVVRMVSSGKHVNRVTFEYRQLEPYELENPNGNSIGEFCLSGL

[2] = target: T2, Corticotropin-releasing factor receptor 2/Corticotropin-releasing factor-binding protein; test: activators of CRF receptor 2 with binding protein – uHTS hits, confirmation (AID 602473); type: functional; conditions: read-out: EC50_Mean
[3] = blockers of CRF-binding protein–CRF-R2 complex – cell-based, uHTS hits, 384-well, dose response (AID 651639); type: functional, Homo sapiens; conditions: read-out: IC50_Mean
[4] = target: T3, Short transient receptor potential channel 4 (Mus musculus, UniProt Q9QUQ5); test: block of DAMGO-driven TRPC4 calcium entry – cell-based, HEK293 TRPC4/mu-opioid, Fluo-4 calcium, dose response (AID 434942); type: functional;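 further: potency of inhibitors blocking the TRPC4 calcium response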
T3 sequence (Q9QUQ5 whole entry): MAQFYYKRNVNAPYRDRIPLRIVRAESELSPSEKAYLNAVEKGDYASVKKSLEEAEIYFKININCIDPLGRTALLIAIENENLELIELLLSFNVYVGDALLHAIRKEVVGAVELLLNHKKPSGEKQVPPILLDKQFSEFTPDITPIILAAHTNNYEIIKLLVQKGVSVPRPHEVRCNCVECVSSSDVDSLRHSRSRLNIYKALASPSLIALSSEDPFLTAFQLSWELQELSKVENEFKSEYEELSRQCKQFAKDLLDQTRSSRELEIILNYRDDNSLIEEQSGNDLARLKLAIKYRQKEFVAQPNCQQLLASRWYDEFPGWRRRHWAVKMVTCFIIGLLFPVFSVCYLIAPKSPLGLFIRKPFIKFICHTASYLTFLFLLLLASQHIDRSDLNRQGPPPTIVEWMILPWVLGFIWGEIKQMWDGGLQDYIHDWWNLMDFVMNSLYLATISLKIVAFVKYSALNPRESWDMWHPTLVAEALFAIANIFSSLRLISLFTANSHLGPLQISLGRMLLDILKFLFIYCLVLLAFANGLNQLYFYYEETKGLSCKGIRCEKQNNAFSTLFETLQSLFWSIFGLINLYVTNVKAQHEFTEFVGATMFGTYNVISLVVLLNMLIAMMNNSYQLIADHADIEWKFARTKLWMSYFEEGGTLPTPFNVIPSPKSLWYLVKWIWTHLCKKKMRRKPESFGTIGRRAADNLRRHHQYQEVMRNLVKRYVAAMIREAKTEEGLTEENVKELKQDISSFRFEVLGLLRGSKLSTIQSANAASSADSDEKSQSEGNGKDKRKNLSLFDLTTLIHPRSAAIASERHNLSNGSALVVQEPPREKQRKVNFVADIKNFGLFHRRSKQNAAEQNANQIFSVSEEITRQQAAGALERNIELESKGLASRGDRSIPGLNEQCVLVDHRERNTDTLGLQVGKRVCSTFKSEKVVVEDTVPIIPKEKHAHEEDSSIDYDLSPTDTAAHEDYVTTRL

Vero = test: viability of Vero cells under compound – cytotoxicity control for flavivirus capping enzyme inhibitors (AID 588742); type: functional; conditions: Chlorocebus sabaeus
Genome polyprotein = Genome polyprotein (dengue virus type 2, UniProt P29990); test: flavivirus cap methylation enzyme inhibition – biochemical, confirmation dose response, primary screen (AID 588689); type: functional
Beta-galactosidase = Beta-galactosidase (Escherichia coli, UniProt Q8VNN2); test: PubChem AID 485352; type: functional
[5] = target: T4, Type-1 angiotensin II receptor (Homo sapiens, UniProt P30556); test: antagonism of angiotensin II type 1 receptor – cell-based, uHTS hits, selectivity assay for APJ receptor antagonist project, dose response (AID 463214); type: functional;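 further: antagonist potency against angiotensin II stimulated AT1 response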
T4 sequence (P30556 whole entry): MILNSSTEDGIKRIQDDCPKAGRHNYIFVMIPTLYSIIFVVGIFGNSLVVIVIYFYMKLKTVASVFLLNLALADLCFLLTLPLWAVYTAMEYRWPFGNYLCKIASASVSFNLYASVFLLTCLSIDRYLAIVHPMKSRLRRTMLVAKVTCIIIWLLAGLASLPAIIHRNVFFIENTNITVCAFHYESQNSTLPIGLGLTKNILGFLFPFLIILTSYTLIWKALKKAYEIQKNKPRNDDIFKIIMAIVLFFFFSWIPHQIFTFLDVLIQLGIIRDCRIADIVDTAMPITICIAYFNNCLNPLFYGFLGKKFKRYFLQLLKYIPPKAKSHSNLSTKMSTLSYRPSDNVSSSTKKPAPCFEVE

HEK293 [6] = test: inhibition of NOD1-driven NF-kB reporter – cell-based, luminescence, uHTS, primary screen (AID 1578); type: functional; conditions: Homo sapiens
HEK293 [7] = test: cells; type: functional, cell-based; conditions: Homo sapiens
HEK293 [8] = test: cells; type: functional, cell-based; conditions: Homo sapiens; remark: listed apart in the source
[9] = target: Nucleotide-binding oligomerization domain-containing protein 2 (Homo sapiens, UniProt Q9HC29); test: inhibition of NOD2-driven NF-kB reporter – cell-based, luminescence, uHTS, HEK293 (AID 1566); type: functional
HEK293 [10] = test: NOD2 signaling inhibitors in MDP-stimulated cells, cell-based, uHTS, luminescence (AID 2001); type: functional; conditions: Homo sapiens
HEK293 [11] = test: cells; type: functional, cell-based; conditions: Homo sapiens; remark: listed apart in the source
HEK293 [12] = test: EBV LMP1 TES2 canonical NF-kB signalling blockers – cell-based, HEK293, luciferase, cherry-pick, dose response (AID 588343); type: functional; conditions: Homo sapiens
Cytochrome P450 2D6 = Cytochrome P450 2D6 (Homo sapiens, UniProt P10635);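 further: CYP2D6 member of a cytochrome P450 panel assay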
BJ [13] = test: BJ-TERT fibroblast viability loss – cell-based, RAS-independent, luminescence, dose response (AID 1933); type: functional; conditions: Homo sapiens
BJ [14] = test: cells; type: functional, cell-based; conditions: Homo sapiens
BJ [15] = test: BJ-TERT-LT-ST fibroblast viability loss – cell-based, RAS-independent, luminescence, dose response (AID 1935); type: functional; conditions: Homo sapiens;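 further: BJ fibroblasts immortalized with TERT plus LT and ST oncogenes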
[16] = DRD fibroblast viability loss – cell-based, non-viral oncogenic, luminescence, dose response (AID 1934); type: functional; conditions: Homo sapiens

Nucleotide-binding oligomerization domain-containing protein 2, sequence (Q9HC29 whole entry, the tested form may be a part): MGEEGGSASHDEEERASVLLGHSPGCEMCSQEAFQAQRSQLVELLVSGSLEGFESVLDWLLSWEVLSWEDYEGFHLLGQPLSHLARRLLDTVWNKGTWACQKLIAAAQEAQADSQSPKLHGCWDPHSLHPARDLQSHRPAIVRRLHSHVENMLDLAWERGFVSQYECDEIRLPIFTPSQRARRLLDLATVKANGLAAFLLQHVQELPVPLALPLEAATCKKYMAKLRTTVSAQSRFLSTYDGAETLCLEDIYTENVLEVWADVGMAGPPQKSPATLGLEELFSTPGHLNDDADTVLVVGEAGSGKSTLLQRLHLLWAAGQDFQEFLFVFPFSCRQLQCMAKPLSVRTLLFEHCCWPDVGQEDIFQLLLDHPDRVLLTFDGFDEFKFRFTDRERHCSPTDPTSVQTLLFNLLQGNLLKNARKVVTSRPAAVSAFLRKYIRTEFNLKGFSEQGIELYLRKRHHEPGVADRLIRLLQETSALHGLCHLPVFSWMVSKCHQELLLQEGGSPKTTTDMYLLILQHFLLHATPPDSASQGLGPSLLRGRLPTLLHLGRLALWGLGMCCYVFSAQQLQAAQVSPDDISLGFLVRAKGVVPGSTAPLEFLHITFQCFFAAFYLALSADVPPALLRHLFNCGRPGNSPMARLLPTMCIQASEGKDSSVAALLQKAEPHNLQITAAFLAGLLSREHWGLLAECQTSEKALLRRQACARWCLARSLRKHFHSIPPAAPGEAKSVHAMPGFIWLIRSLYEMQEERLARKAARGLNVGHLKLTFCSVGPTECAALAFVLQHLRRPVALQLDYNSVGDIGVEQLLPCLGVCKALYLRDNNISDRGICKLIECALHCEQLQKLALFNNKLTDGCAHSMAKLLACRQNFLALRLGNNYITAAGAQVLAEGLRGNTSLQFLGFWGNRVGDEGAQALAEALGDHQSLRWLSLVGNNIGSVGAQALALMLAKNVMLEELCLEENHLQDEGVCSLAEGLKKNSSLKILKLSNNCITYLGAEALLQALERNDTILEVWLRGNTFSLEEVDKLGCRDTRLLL
Cytochrome P450 2C9, sequence (P11712 whole entry): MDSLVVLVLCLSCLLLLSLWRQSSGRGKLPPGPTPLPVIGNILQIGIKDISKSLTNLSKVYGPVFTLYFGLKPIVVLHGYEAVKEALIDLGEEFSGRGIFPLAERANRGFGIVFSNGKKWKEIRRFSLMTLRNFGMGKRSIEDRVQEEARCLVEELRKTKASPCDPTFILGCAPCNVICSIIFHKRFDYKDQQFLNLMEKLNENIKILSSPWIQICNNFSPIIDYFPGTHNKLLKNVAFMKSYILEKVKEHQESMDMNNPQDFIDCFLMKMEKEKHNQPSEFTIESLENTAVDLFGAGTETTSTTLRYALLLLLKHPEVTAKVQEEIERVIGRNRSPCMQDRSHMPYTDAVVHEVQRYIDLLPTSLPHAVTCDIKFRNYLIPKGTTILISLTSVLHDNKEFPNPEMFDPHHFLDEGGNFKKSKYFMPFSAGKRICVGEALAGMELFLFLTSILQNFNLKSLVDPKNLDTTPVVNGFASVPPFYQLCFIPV
Beta-galactosidase, sequence (Q8VNN2 whole entry): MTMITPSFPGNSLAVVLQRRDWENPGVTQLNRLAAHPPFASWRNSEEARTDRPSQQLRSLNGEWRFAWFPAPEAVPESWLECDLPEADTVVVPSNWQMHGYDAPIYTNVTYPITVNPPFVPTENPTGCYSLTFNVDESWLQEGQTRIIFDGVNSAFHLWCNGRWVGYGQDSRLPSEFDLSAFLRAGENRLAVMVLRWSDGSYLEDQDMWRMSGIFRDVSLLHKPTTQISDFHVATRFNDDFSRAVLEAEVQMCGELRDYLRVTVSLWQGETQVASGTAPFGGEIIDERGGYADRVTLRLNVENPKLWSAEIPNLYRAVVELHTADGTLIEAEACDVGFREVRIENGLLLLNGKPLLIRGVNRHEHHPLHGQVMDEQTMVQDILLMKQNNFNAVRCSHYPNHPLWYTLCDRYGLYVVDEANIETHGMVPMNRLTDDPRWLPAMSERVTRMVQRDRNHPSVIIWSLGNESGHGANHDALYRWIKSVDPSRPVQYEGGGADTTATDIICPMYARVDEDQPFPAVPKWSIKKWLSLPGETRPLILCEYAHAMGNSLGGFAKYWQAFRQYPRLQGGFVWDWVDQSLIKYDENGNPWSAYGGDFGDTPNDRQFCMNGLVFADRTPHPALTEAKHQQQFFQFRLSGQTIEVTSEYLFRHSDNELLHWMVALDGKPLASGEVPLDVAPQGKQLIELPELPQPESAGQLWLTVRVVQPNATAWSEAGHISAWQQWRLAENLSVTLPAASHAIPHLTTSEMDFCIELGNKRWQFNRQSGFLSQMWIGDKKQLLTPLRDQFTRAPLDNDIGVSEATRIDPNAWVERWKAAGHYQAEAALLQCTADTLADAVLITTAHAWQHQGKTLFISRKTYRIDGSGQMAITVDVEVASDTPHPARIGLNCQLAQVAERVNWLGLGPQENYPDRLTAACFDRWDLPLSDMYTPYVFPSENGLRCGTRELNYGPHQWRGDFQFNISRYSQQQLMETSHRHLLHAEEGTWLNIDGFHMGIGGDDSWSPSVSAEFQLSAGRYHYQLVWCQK
Genome polyprotein, sequence (P29990 2492-3391 limits assumed): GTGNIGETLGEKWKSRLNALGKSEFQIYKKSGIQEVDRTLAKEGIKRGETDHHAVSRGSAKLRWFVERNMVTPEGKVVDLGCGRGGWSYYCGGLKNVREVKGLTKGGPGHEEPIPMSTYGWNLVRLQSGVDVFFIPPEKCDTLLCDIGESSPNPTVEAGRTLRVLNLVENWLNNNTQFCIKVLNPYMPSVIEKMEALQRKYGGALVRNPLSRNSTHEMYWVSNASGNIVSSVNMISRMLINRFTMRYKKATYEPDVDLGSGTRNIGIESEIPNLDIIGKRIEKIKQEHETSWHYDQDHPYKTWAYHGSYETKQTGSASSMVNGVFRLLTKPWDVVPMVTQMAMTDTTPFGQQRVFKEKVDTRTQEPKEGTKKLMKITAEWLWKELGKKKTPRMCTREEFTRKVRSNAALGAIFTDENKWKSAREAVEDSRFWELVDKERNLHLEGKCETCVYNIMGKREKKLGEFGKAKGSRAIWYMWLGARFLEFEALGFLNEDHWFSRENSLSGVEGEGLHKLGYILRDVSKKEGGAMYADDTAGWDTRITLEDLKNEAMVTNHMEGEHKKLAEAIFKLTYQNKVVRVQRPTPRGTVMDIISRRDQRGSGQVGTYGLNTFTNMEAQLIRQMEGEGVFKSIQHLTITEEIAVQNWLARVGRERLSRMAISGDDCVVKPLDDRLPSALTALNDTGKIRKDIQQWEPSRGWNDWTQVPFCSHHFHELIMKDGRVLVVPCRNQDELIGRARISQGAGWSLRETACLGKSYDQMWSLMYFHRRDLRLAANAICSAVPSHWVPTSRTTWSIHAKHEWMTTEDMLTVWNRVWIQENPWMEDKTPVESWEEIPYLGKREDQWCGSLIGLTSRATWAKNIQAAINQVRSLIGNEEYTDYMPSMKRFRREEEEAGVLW
Cytochrome P450 2D6, sequence (P10635 whole entry): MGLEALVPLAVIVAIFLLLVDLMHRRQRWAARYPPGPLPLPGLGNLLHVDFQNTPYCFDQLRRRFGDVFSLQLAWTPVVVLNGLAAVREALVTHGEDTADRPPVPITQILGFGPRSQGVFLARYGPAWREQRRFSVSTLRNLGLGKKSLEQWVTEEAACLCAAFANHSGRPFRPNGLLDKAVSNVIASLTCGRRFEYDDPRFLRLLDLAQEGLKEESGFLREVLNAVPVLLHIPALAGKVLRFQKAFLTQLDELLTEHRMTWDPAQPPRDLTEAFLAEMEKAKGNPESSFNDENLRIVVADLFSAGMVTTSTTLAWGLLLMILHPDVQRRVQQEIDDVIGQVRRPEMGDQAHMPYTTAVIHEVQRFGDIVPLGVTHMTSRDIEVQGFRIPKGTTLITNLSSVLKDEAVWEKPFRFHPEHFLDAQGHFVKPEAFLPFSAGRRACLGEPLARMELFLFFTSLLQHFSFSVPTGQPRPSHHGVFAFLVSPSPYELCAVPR

Row | Compound | EC50 (HEK293 [6]) | IC50 (HEK293 [7]) | IC50 (HEK293 [8]) | EC50 [9] | IC50 (HEK293 [10]) | IC50 (HEK293 [11]) | other results
1 | O=C(c1coc(=O)c2ccccc12)N1CCN(Cc2ccccc2)CC1 | – | – | – | – | – | – | AC50 (Cytochrome P450 1A2): 10 µM (inconclusive); AC50 (Cytochrome P450 2C9): inconclusive
2 | Cc1nn(Cc2ccccc2)c(Cl)c1C(=O)NC1CCCc2ccccc21 (stereo not drawn) | – | – | – | – | – | – | IC50 [1]: 6.77 µM (active); EC50 [2]: > 53 µM (inactive); IC50 [3]: 11.9 µM (active)
3 | CCCn1c(=O)c2ccccc2n2c(SCCOc3ccc(C)cc3)nnc12 | – | – | – | – | – | – | EC50 [4]: 1.68 µM (active)
4 | CCOC(=O)c1sc(N2N=C(C)/C(=C\c3ccc(OCC(=O)OC)cc3)C2=O)nc1C | – | – | – | – | – | – | CC50 (Vero): 39.2 µM (active); IC50 (Genome polyprotein): 90.7 µM (active)
5 | CCCCNC(=S)NNC(=O)CCn1nc(C)c(Br)c1C | – | – | – | – | – | – | EC50 (Beta-galactosidase): > 40 µM (inactive); IC50 [5]: > 40 µM (not active); AC50 (Cytochrome P450 2C9): inconclusive
6 | COc1ccccc1-c1nc(C#N)c(N2CCN(c3cccc(Cl)c3)CC2)o1 | 8.65 µM (active) | 18.5 µM (active) | > 20 µM (inactive) | 11.2 µM (active) | 17.4 µM (inactive) | > 20 µM (inactive) | –
7 | CN(C)c1ccnc2sc(C(N)=O)c(N)c12 | – | – | – | – | – | – | AC50 (HEK293 [12]): 3.08 µM (active)
8 | Cc1ccc(NC(=O)Cc2cc(C(=O)O)c3ccccc3n2)c(C)c1 | 7.04 µM (active) | 11.7 µM (active) | > 20 µM (inactive) | 6.77 µM (active) | 8.76 µM (inactive) | > 20 µM (inactive) | –
9 | COCC(C)n1c(C)cc(C(=O)COc2ccc(C)nc2[N+](=O)[O-])c1C (stereo not drawn) | > 20 µM (inactive) | 6.88 µM (active) | > 20 µM (inactive) | 16.7 µM (active) | > 20 µM (inactive) | > 20 µM (inactive) | –
10 | Clc1ccccc1NN(Cc1ccncc1)c1ccccc1Cl | – | – | – | – | – | – | IC50 [1]: < 0.368 µM (active); EC50 [2]: > 53 µM (inactive); IC50 [3]: > 20 µM (inactive); AC50 (Cytochrome P450 2D6): 3.16 µM (inconclusive)
11 | CC(C)OC(=O)c1ccccc1C(=O)c1ccc(N)c([N+](=O)[O-])c1 | – | – | – | – | – | – | EC50 (BJ [13]): > 150 µM (not active); EC50 (BJ [14]): > 150 µM (not active); EC50 (BJ [15]): > 150 µM (not active); EC50 [16]: > 150 µM (not active); IC50 [1]: 38.6 µM (active); EC50 [2]: > 53 µM (inactive); IC50 [3]: > 20 µM (inactive)
12 | CC1CCc2c(sc3ncnc(SCC(=O)Nc4ccc(C(=O)O)cc4)c23)C1 (stereo not drawn) | – | – | – | – | – | – | EC50 [4]: 6.68 µM (active)
13 | O=C(Nc1ccc(Cl)cn1)c1ccc(Br)c(S(=O)(=O)N2CCCCC2)c1 | 9.56 µM (active) | 7.73 µM (active) | 18.7 µM (active) | > 20 µM (inactive) | 9.77 µM (active) | > 20 µM (inactive) | –
